The record followed here is the supplement of paper PMC11208160.

This series can be described thus: recombinant barcode read abundance after kanamycin selection (control-corrected) (log10(CPM+1)); higher = more efficient recombination; sequences stand for … in AGTGCAGAGAAAATCGGCCAGTTTTCTCTGCCTGCAGTCCGCATGCCGT…AGATTTATGCAGCGGACTGCCTTTCTCCCAAAGTGATAAACCGGACAGTATCATGGACCGGTTTTCCCGGTAATCCGTATTTGCAAGGTTGGTTTCACT; site = the 11-nt target. An outline of the steps:
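In E. coli, a pooled library matched targets to IS621 bridge RNA target-binding loops and was introduced alongside a donor plasmid. Cells went onto chloramphenicol/ampicillin/kanamycin with 0.1 mM IPTG or onto chloramphenicol/ampicillin LB agar as control, in duplicate. Recombination efficiency, from recombinant-junction barcodes as counts per million, is averaged and control-corrected. It is reported as log10(CPM+1).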
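Note: IS621 recombinase and bridge RNA in Escherichia coli cells.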

For the sequence “TGTGCTACTTGGGTTCTAACCTGTTGCAC (site GACCTATCTAG)”, the “recombinant barcode read abundance (log10)” value stood at 0.327.
The same measure for “TGTGCTACTTGGGTTCTAACCTGTTGCAC (site TGTGCTACTGT)”: 0.0867; for “TGTGCTCCTTGGGTTCTAACCTGTTGCAG (site TGTGCACCTGT)”: 0.294; for “TGTGCTCCTTGGGTTCTAACCTGTTGCAG (site TGTGCTCCTCT)”: 0.113.
In the case of “TGTGTCTCTTGGGTTCTAACCTGTTGCGT (site TCTGTCTCTAG)”, the “recombinant barcode read abundance (log10)” value was 0.363.
Regarding “TGTGTCTCTTGGGTTCTAACCTGTTGCGT (site TGTGTCTCTAC)”, the “recombinant barcode read abundance (log10)” value was 2.63.
The same measure for “TGTTGAGCTTGGGTTCTAACCTGTTGCCG (site TGTAGAGCTCG)”: 0.09; for “TGTTGAGCTTGGGTTCTAACCTGTTGCCG (site TGTCGAGCTCG)”: 0.192.
Take “TGTTGAGCTTGGGTTCTAACCTGTTGCCG (site TGTGGAGCTCG)”: the “recombinant barcode read abundance (log10)” value worked out at 0.258.
The same measure for “TGTTGAGCTTGGGTTCTAACCTGTTGCCG (site TGTTGAGCTCG)”: 0.554.
The same measure for “TGTTGTTCTTGGGTTCTAACCTGTTGCCT (site GGTTGTTCTAG)”: 0.0142; for “TGTTGTTCTTGGGTTCTAACCTGTTGCCT (site TGTTGTTCTAG)”: 0.0851.
The same measure for “TGTTTAACTTGGGTTCTAACCTGTTGCCT (site TGGTTACCTAG)”: 0.126; for “TGTTTAACTTGGGTTCTAACCTGTTGCCT (site TGTTTAACTAG)”: 0.0368; for “TTAAAACCTTGGGTTCTAACCTGTTGCCT (site ATAAAACCTAG)”: 0.0421.
Consider “TTAAAACCTTGGGTTCTAACCTGTTGCCT (site CTAAAACCTAG)”, for which the “recombinant barcode read abundance (log10)” value was determined as 0.0966.
The same measure for “TTAAAACCTTGGGTTCTAACCTGTTGCCT (site GTAAAACCTAG)”: 0.06; for “TTAAAACCTTGGGTTCTAACCTGTTGCCT (site TTAAAACCTAG)”: 0.751.
The same measure for “TTAACTACTTGGGTTCTAACCTGTTGCTT (site TTAACTACTAA)”: 0.0821; for “TTAACTACTTGGGTTCTAACCTGTTGCTT (site TTAACTACTCA)”: 0.233; for “TTAACTACTTGGGTTCTAACCTGTTGCTT (site TTAACTACTGA)”: 0.294.
The same measure for “TTAACTACTTGGGTTCTAACCTGTTGCTT (site TTAACTACTTA)”: 0.0225.
With “TTAAGCCCTTGGGTTCTAACCTGTTGCCT (site TTAAGACCTAG)”, the “recombinant barcode read abundance (log10)” value came out at 0.288.
On to “TTAAGCCCTTGGGTTCTAACCTGTTGCCT (site TTAAGCCCTAG)”, for which the “recombinant barcode read abundance (log10)” value came out at 1.41.
Regarding “TTAAGCTCTTGGGTTCTAACCTGTTGCCT (site ATAAGCTCTAG)”, the “recombinant barcode read abundance (log10)” value was 0.125.
The same measure for “TTAAGCTCTTGGGTTCTAACCTGTTGCCT (site CTAAGCTCTAG)”: 0.197; for “TTAAGCTCTTGGGTTCTAACCTGTTGCCT (site GTAAGCTCTAG)”: 0.
The same measure for “TTAAGCTCTTGGGTTCTAACCTGTTGCCT (site TTAAGCTCTAG)”: 1.43; for “TTAAGTCCTTGGGTTCTAACCTGTTGCAT (site TTAAGTCCTAT)”: 0.498.
The same measure for “TTAAGTCCTTGGGTTCTAACCTGTTGCAT (site TTAGGTCCTAA)”: 0.0454; for “TTACCCACTTGGGTTCTAACCTGTTGCCT (site TTACCAACTAG)”: 0.0275.
For the sequence “TTACCCACTTGGGTTCTAACCTGTTGCCT (site TTACCCACTAG)”, the “recombinant barcode read abundance (log10)” value was determined as 3.27.
The same measure for “TTACCCACTTGGGTTCTAACCTGTTGCCT (site TTACCGACTAG)”: 0.0929; for “TTACCCACTTGGGTTCTAACCTGTTGCCT (site TTACCTACTAG)”: 0.151; for “TTACGAGCTTGGGTTCTAACCTGTTGCGG (site TTACGAGCTCC)”: 1.81.
The same measure for “TTACGAGCTTGGGTTCTAACCTGTTGCGG (site TTACGCGCTCC)”: 0.176; for “TTACGAGCTTGGGTTCTAACCTGTTGCGG (site TTACGGGCTCC)”: 0.608.
As for “TTACGAGCTTGGGTTCTAACCTGTTGCGG (site TTACGTGCTCC)”, the “recombinant barcode read abundance (log10)” value stood at 0.14.
The same measure for “TTACGTACTTGGGTTCTAACCTGTTGCCT (site ATACGTACTAG)”: 0.131.
The same measure for “TTACGTACTTGGGTTCTAACCTGTTGCCT (site CTACGTACTAG)”: 0.193; for “TTACGTACTTGGGTTCTAACCTGTTGCCT (site GTACGTACTAG)”: 0.19; for “TTACGTACTTGGGTTCTAACCTGTTGCCT (site TTACGTACTAG)”: 1.45.
The same measure for “TTACGTGCTTGGGTTCTAACCTGTTGCGG (site TTACGAGCTCC)”: 0.271; for “TTACGTGCTTGGGTTCTAACCTGTTGCGG (site TTACGCGCTCC)”: 0.141; for “TTACGTGCTTGGGTTCTAACCTGTTGCGG (site TTACGGGCTCC)”: 0.67.
For “TTACGTGCTTGGGTTCTAACCTGTTGCGG (site TTACGTGCTCC)”, the “recombinant barcode read abundance (log10)” value came out at 2.4.
Turning to “TTAGAGCCTTGGGTTCTAACCTGTTGCCT (site TTAGAGACTAG)”, the “recombinant barcode read abundance (log10)” value was 0.0939.
For “TTAGAGCCTTGGGTTCTAACCTGTTGCCT (site TTAGAGCCTAG)”, the “recombinant barcode read abundance (log10)” value worked out at 2.
The same measure for “TTAGAGCCTTGGGTTCTAACCTGTTGCCT (site TTAGAGGCTAG)”: 0.173; for “TTAGAGCCTTGGGTTCTAACCTGTTGCCT (site TTAGAGTCTAG)”: 0.644; for “TTAGAGTCTTGGGTTCTAACCTGTTGCCT (site TTAGAGACTAG)”: 0.103.
The same measure for “TTAGAGTCTTGGGTTCTAACCTGTTGCCT (site TTAGAGCCTAG)”: 0.925.
The same measure for “TTAGAGTCTTGGGTTCTAACCTGTTGCCT (site TTAGAGGCTAG)”: 0.126; for “TTAGAGTCTTGGGTTCTAACCTGTTGCCT (site TTAGAGTCTAG)”: 2.08; for “TTAGCCTCTTGGGTTCTAACCTGTTGCCT (site TTAGCATCTAG)”: 0.168.
For “TTAGCCTCTTGGGTTCTAACCTGTTGCCT (site TTAGCCTCTAG)”, the “recombinant barcode read abundance (log10)” value was 2.66.
The same measure for “TTAGCCTCTTGGGTTCTAACCTGTTGCCT (site TTAGCGTCTAG)”: 0.137; for “TTAGCCTCTTGGGTTCTAACCTGTTGCCT (site TTAGCTTCTAG)”: 0.00901; for “TTAGCGTCTTGGGTTCTAACCTGTTGCCT (site TTAGCATCTAG)”: 1.47.
